According to BigSolDB 2.1:

O=C(N[C@H](C(=O)O)c1ccccc1)OCc1ccccc1
solubility (mole fraction)
Details	283.15 K	288.15 K	293.15 K	298.15 K	303.15 K	313.15 K	323.15 K
in 2-butanone	0.0446	–	0.0596	–	0.0762	0.0957	0.111
in acetone	0.0605	–	0.0786	–	0.1	0.129	0.159
in acetonitrile	0.0067	–	0.00966	–	0.0143	0.0253	0.053
in dichloromethane	0.00624	0.00703	0.00874	0.0112	0.0149	–	–
in ethanol	0.0235	–	0.0354	–	0.0581	0.0922	0.141
in ethyl acetate	0.0209	–	0.0274	–	0.0371	0.0549	0.073
in isopropanol	0.0107	–	0.0175	–	0.0328	0.0604	0.105
in methanol	0.0325	–	0.0479	–	0.0794	0.111	0.146
in methyl acetate	0.028	–	0.0399	–	0.0541	0.0739	0.0918
in n-propanol	0.0141	–	0.0231	–	0.039	0.068	0.11
in water	1.1e-05	–	2.4e-05	–	4.5e-05	5.7e-05	6.9e-05
